# Reference: BindingDB's records for doi:10.1016/s0960-894x(01)00246-3 (Rohm and Haas, 2001)
# Biological target: Tubulin alpha/beta (Bos taurus)
# Experiment: Inhibition of Bos taurus (bovine) brain tubulin polymerization
row,SMILES,EC50
1,"COc1cccc([C@@H]2CC=CC[C@H]2[N+](=O)[O-])c1 [1-Methoxy-3-((1S,6R)-6-nitro-cyclohex-3-enyl)-benzene]",> 100 µM
2,"COc1ccc(-c2ccc(OC)c(OC)c2OC)c([N+](=O)[O-])c1 [2,3,4,4'-Tetramethoxy-2'-nitro-biphenyl]",6.25 µM
3,"COc1ccc(-c2ccc(OC)c(OC)c2OC)cc1 [2,3,4,4'-Tetramethoxy-biphenyl]",6.25 µM
4,"O=[N+]([O-])[C@@H]1CC=CC[C@H]1c1ccccc1 [((1S,6R)-6-Nitro-cyclohex-3-enyl)-benzene]",> 100 µM

# Continued, values first:
row,EC50,SMILES
1,50 µM,"COc1ccc(-c2ccccc2C#N)c(OC)c1OC [2',3',4'-Trimethoxy-biphenyl-2-carbonitrile]"
2,6.25 µM,"COc1ccc(-c2ccc(OC)c(OC)c2OC)c(C)c1 [2,3,4,4'-Tetramethoxy-2'-methyl-biphenyl]"
3,> 100 µM,"COc1ccc(-c2ccccc2[N+](=O)[O-])c(OC)c1OC [2,3,4-Trimethoxy-2'-nitro-biphenyl]"
4,6.25 µM,"COc1ccc(-c2ccc(OC)c(OC)c2OC)c(C#N)c1 [4,2',3',4'-Tetramethoxy-biphenyl-2-carbonitrile]"
5,> 100 µM,"COc1ccc(C2CC=CCC2C#N)c(OC)c1OC (centres undefined) [6-(2,3,4-Trimethoxy-phenyl)-cyclohex-3-enecarbonitrile]"
